# From publication PMC5459446, “A phase I study of single-agent perifosine for recurrent or refractory pediatric CNS and solid tumors” (PLoS ONE, 2017)
# Values joined by “and” are separate entries in the source; they are usually repeats but may differ in a detail not shown here. Equal values may be shown once. Where a name gives a salt, the structure may show the parent alone.
# How the values were obtained:
# [1] = Steady state plasma pharmacokinetics (LC/electrospray MS); assay type: in vivo, human
# Experimental: Samples for pharmacokinetic analysis were obtained at baseline and during weeks 2 through 4 of cycle 1. At each time point, heparinized blood was collected into a plastic vacutainer to minimize adhesion of perifosine. Plasma was separated by centrifugation and stored in polypropylene cryovials at -70°C until assayed. Perifosine in plasma was measured by a validated reversed phase liquid chromatography/electrospray mass spectrometry method as developed and validated by Woo et al..
# [2] = cited from earlier work
# [3] = system: recurrent or refractory pediatric CNS and solid tumors; assay: Tumor response assessment (RECIST; INRC for neuroblastoma); assay type: in vivo, human; parameters: key to Best Response: no response per INRC; PD: progressive disease per RECIST or INRC; SD: stable disease per RECIST; details: for Subjects with stable disease as best response: stable disease for 2 months
# Experimental: Tumor assessments were performed approximately every 8 weeks. For subjects with tumors other than neuroblastoma, responses were assessed by the study radiologist and principal investigator (SH, ID) via the Response Evaluation Criteria in Solid Tumors (RECIST). For subjects with neuroblastoma, responses were assessed by a single investigator (BK) using the International Neuroblastoma Response Criteria (INRC).
smiles,measurement,setting,value
"CCCCCCCCCCCCCCCCCCOP(=O)([O-])OC1CC[N+](C)(C)CC1 [perifosine, 1,1-Dimethyl-4-[[(octadecyloxy)hydroxyphosphinyl]oxy]-piperidinium inner salt]",Average Plasma Level (standard deviation),"[1]; dose level 1, target 25 mg/m^2/day, patients 1,2,3, steady state",6.8 (1.6) μg/mL
same,Average Plasma Level (standard deviation),"[1]; dose level 2, target 50 mg/m^2/day, patients 4,5,6, steady state",14.4 (2.5) μg/mL and 39.0 (6.8) μM
same,Average Plasma Level (standard deviation),"[1]; dose level 3, target 75 mg/m^2/day, patients 7-11, steady state",11.5 (3.1) μg/mL and 31.1 (8.5) μM
same,Average Plasma Level (standard deviation),"[1]; dose level 4, target 100 mg/m^2/day, patients 12-17, steady state",12.7 (6.1) μg/mL and 34.4 (16.5) μM
same,Average Plasma Level (standard deviation),"[1]; dose level 5, target 125 mg/m^2/day, patients 18-22, steady state",12.1 (3.5) μg/mL and 32.8 (9.5) μM
same,Steady state plasma levels,[1]; observed in most patients,above 10 μM
same,Maintenance dose at which dose exposure plateau is reached,"[1]; pediatric patients, steady state plasma levels",50 mg/m^2/day
same,Dose at which dose exposure plateau was reached,[2]; 2 adult studies,higher than 100 mg/m^2/day
same,Plasma half-life,[2],approximately 4 days
same,Objective responses,"[3]; 23 patients, all dose levels",No objective responses
same,Best Response,"[3]; Patient 1, dose level 1, medulloblastoma",PD
same,Best Response,"[3]; Patient 2, dose level 1, medulloblastoma",PD
same,Best Response,"[3]; Patient 3, dose level 1, neuroblastoma",NR
same,Duration of Best Response,"[3]; Patient 3, dose level 1, neuroblastoma, NR",11 months
same,Best Response,"[3]; Patient 4, dose level 2, glioblastoma",PD
same,Best Response,"[3]; Patient 5, dose level 2, neuroblastoma",NR
same,Duration of Best Response,"[3]; Patient 5, dose level 2, neuroblastoma, NR",63 months
same,Best Response,"[3]; Patient 6, dose level 2, anaplastic astrocytoma",SD
same,Duration of Best Response,"[3]; Patient 6, dose level 2, anaplastic astrocytoma, SD",2 months
same,Best Response,"[3]; Patient 7, dose level 3, glioblastoma",SD
same,Duration of Best Response,"[3]; Patient 7, dose level 3, glioblastoma, SD",2 months
same,Best Response,"[3]; Patient 8, dose level 3, anaplastic astrocytoma",SD
same,Duration of Best Response,"[3]; Patient 8, dose level 3, anaplastic astrocytoma, SD",2 months
same,Best Response,"[3]; Patient 9, dose level 3, anaplastic astrocytoma",SD
same,Duration of Best Response,"[3]; Patient 9, dose level 3, anaplastic astrocytoma, SD",2 months
same,Best Response,"[3]; Patient 10, dose level 3, ependymoma",PD
same,Best Response,"[3]; Patient 11, dose level 3, neuroblastoma",NR
same,Duration of Best Response,"[3]; Patient 11, dose level 3, neuroblastoma, NR",2 months
same,Best Response,"[3]; Patient 12, dose level 4, neuroblastoma",PD
same,Best Response,"[3]; Patient 13, dose level 4, Ewing sarcoma/PNET",PD
same,Best Response,"[3]; Patient 14, dose level 4, neuroblastoma",NR
same,Duration of Best Response,"[3]; Patient 14, dose level 4, neuroblastoma, NR",4 months
same,Best Response,"[3]; Patient 15, dose level 4, neuroblastoma",NR
same,Duration of Best Response,"[3]; Patient 15, dose level 4, neuroblastoma, NR",42 months
same,Best Response,"[3]; Patient 16, dose level 4, neuroblastoma",PD
same,Best Response,"[3]; Patient 17, dose level 4, DIPG",PD
same,Best Response,"[3]; Patient 18, dose level 5, Wilms tumor",PD
same,Best Response,"[3]; Patient 19, dose level 5, DIPG",PD
same,Best Response,"[3]; Patient 20, dose level 5, DIPG",SD
same,Duration of Best Response,"[3]; Patient 20, dose level 5, DIPG, SD",2 months
same,Best Response,"[3]; Patient 21, dose level 5, ependymoma",PD
same,Best Response,"[3]; Patient 22, dose level 5, ependymoma",PD
same,Best Response,"[3]; Patient 23, dose level 5, neuroblastoma",PD
same,Subjects with disease stability (no response per INRC),"[3]; neuroblastoma, for 2, 4, 11, 42 and 63 months",Five of 8
same,Subjects with stable disease as best response,[3]; recurrent high-grade astrocytoma,4 of 5
same,Duration of prolonged stable disease,[3]; three subjects with neuroblastoma,≥ 11 months
same,Subjects with stable disease as best response,[3]; three subjects with recurrent DIPG,1
